Laboratory results taken from patent US7470703B1 (priority 2004, dated 2008).
Where two headings read alike, the source gives them in different places. Marks after values point to notes of the source that are not given here.

How the values were obtained:
[1] = test system: mouse cremaster muscle; test: Ex vivo mouse cremaster muscle vasoconstriction model; conditions: for EC50: Mus musculus, read-out: EC50 (vasoconstriction concentration-response)
[2] = target: T1, human α2C-AR (Homo sapiens, UniProt P18825); test: cell-based
T1 sequence (P18825 1-462): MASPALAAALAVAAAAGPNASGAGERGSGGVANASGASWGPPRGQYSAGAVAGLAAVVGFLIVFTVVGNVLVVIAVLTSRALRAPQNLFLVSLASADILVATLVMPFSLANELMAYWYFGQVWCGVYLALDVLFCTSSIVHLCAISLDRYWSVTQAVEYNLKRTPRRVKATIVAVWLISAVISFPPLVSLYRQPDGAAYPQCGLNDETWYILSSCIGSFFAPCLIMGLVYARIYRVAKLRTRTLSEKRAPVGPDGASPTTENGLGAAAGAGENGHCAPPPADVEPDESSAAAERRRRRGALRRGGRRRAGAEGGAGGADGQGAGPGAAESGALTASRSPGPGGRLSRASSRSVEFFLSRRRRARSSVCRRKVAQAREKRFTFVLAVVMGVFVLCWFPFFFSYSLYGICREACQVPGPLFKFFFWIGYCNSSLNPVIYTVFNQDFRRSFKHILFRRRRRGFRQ
Experimental: (§1) The reporter gene assays were conducted in CHO cells expressing the human α2A- and α2C-AR subtype. The cells were grown to confluence, upon which they were isolated and electroporated in the presence of the plasmid. […] Cells were transiently transfected with the 6 CRE-LUC plasmid (5 μg/100 μl of cell suspension) using electroporation at 150 V, 70 ms, single pulse. Transfected cells were plated into a 96-well microplate at a density of approximately 50,000 cells per well and allowed to grow for 20 hours.
(§2) The assays with both α2A- and α2C-ARs were conducted using the non-subtype selective α2-AR agonist, medetomidine, to block the cAMP changes induced by the adenyl cyclase activator, forskolin. […] Basal values (solvent control) were subtracted from the forskolin values and the resulting forskolin response was used as 100%. Similarly, basal values were subtracted from all other values obtained with ligands, and the data expressed as a percentage luciferase response relative to that of forskolin alone.
(§3) The agonist ligand, medetomidine, was added directly to the medium 20 minutes prior to the addition of forskolin and then allowed to incubate for 4 hours. […] These compounds were added 20 minutes prior to the addition of medetomidine.

[3] = target: T2, human α2A-AR (Homo sapiens, UniProt P08913); test: cell-based
T2 sequence (P08913 1-465): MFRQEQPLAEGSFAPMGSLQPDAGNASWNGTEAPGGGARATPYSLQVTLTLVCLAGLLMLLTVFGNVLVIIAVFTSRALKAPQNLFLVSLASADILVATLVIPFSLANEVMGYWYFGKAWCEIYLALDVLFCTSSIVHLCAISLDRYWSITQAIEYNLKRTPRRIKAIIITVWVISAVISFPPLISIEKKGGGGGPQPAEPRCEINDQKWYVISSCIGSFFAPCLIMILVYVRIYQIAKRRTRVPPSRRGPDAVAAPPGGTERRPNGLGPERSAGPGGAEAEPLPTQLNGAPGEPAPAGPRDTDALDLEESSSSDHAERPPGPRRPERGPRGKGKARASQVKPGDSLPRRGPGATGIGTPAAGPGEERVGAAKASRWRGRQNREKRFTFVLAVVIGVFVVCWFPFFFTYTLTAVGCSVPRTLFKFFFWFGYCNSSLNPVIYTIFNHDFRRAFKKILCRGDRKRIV
Experimental: as §1, §2, §3

[4] = target: T2, human α2A-AR; test: Radioligand binding ([3H]rauwolscine) in CHO cells expressing human α2A-AR; design: expressed in transfected cells
Experimental: (§4) Radioligand binding studies were conducted in CHO cells expressing homogeneous populations of α2A-, α2B- and α2C-ARs. Similar studies were performed in HEK293 cells expressing homogeneous populations of α1A-, α1B- and α1D-ARs. Briefly, CHO cells were harvested using Ham's F-12 media following trypsinization while HEK293 cells were detached by simple scraping. The cell suspension was centrifuged and the pellet re-suspended in Tris-EDTA buffer, pH 7.4. […] The assays were conducted in a final volume of 2 ml. Non-specific binding was determined in the presence of 10 μM phentolamine. The percentage of specific binding was determined by dividing the difference between the total bound (dpm) and nonspecific bound (dpm) by the total bound (dpm). […] Inhibition of specific binding by the competitors was determined using varying concentrations of the analogs. Incubations were terminated at 60 minutes by rapid filtration over Whatman GF/C glass fiber filters (Maidstone, UK) using a cell harvester (Brandel Inc., Gaithersburg, Md.). The filter discs were washed three times with Tris-EDTA buffer, pH 7.4, at 4° C. The radioactivity was quantified by using a Packard TRI-CARB 2900 TR Liquid Scintillation Analyzer (Packard Instrument Company, CT, USA) and data analyzed using GraphPad Prism (GraphPad Software, San Diego, Calif., USA).
(§5) Scatchard analyses were carried out using varying concentrations of selected radioligands to determine their affinities (KD) and maximal binding characteristics (Bmax). […] The total and nonspecific binding for each concentration was determined in triplicate. The specific binding, at each concentration of the radioligand, was established and plotted as bound ligand versus bound/free ligand and the corresponding KD and Bmax values calculated on each human α-AR subtype. Data are expressed as the mean±S.E.M. of n=6-9 experiments.
(§6) Individual pKi values are used to determine whether there are significant differences among means of the analogs on the three α2-AR subtypes. […] The final data are presented as mean±SEM of n=4 or more experiments.
(§7) Ki and IC50 values were calculated as described above.

[5] = target: T1, human α2C-AR; test: Radioligand binding ([3H]rauwolscine) in CHO cells expressing human α2C-AR; design: expressed in transfected cells; conditions: for selectivity in binding to the α2C- versus the α2A-AR / selectivity in binding to the α2C- versus the α2B-AR: from binding affinities; for binding affinity for the α2C-AR greater than on the α1-AR subtypes: comparing Tables 1 and 3
Experimental: as §4, §5, §6, §7

[6] = target: T3, human α2B-AR (Homo sapiens, UniProt P18089); test: Radioligand binding ([3H]rauwolscine) in CHO cells expressing human α2B-AR
T3 construct: expressed in transfected cells
T3 sequence (P18089 1-450): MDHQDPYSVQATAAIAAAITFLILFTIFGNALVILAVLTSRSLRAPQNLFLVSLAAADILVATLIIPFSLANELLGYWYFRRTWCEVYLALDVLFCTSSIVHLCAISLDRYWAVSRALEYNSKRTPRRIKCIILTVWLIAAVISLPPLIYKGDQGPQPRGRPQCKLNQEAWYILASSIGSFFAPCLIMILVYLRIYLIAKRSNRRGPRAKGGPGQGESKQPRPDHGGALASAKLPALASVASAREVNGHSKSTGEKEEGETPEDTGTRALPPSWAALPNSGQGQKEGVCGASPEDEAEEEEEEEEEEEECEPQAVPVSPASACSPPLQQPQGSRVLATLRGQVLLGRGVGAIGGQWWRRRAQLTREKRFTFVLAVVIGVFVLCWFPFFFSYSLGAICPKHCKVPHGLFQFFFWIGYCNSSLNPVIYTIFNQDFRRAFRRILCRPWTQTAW
Experimental: as §4, §5, §6, §7

[7] = target: T1, human α2C-AR; design: expressed in transfected cells; conditions: literature; cited from earlier work
[8] = test system: mouse cremaster muscle; test: In vivo mouse cremaster muscle vessel diameter; conditions: intravenous 2 mg/kg, 37° C., n=6
From the text: It is expected that this model also adequately represent the vasodilation in humans.

[9] = CHO, read-out: inhibition of forskolin-induced cAMP response (luciferase)
[10] = CHO cells, [3H]rauwolscine competition

In the case of `Cc1cccc(C(C)c2cnc[nH]2)c1C` (stereo not drawn) [medetomidine], the “shift of the curve (to the left) at the lower temperature” value ([1]; 25° C. vs 37° C.) is reported as 10 fold, the EC50 ([1]; 25° C.) is reported as 2.15 nM and the EC50 ([1]; 37° C.) is reported as 20.4 nM. For the same compound, the inhibition at 1 µM [2, 9] was 70%, the “increase in cAMP levels, alone (in the absence of forskolin)” value ([2]; α2C-AR, 1 μM) was “did not show an increase in cAMP levels” and the inhibition at 0.01 µM [3, 9] was 56%. For the same compound, the “increase in cAMP levels, alone (in the absence of forskolin)” value ([3]; α2A-AR, 10 μM) was 17%.

In the case of `O=C(O)[C@@H]1[C@H]2C[C@H]3c4[nH]c5ccccc5c4CCN3C[C@@H]2CC[C@@H]1O` [Compound 2, Yohimbinic acid], the “decrease in binding potency at the α2A-AR as compared to yohimbine” value [4] is reported as 345 fold, the Ki ([4]; CHO cells) is reported as 616 nM and the “decrease in binding potency at the α2C-AR as compared to yohimbine” value [5] is reported as 20 fold. The Ki ([5]; CHO cells) was 19.4 nM, the “selectivity in binding to the α2C- versus the α2A-AR” value [5] was “around 32 fold” and the “selectivity in binding to the α2C- versus the α2B-AR” value [5] was “equipotent”. The “binding at the α2B-AR versus the α2A-AR” value [6] was 46 fold, the “decrease in binding potency at the α2B-AR as compared to yohimbine” value [6] was 2 fold and the Ki ([6]; CHO cells) was 13.4 nM.

For `O=C(NCCCNC(=O)C1C(O)CCC2CN3CCc4c([nH]c5ccccc45)C3CC21)C1C(O)CCC2CN3CCc4c([nH]c5ccccc45)C3CC21` (stereo not drawn) [Compound 3], the “selectivity in binding to the α2C- versus α2A-AR (Lalchandani et al. 2002)” value [7] is given as 32 fold, the “selectivity in binding to the α2C- versus α2B-AR (Lalchandani et al. 2002)” value [7] is given as 355 fold and the Ki ([4]; CHO cells) is given as 158 nM. The “α2A pKi ± SEM” value [4, 10] was 6.80 ± 0.02^a, the Ki ([5]; CHO cells) was 8.91 nM and the “α2C pKi ± SEM” value [5, 10] was 8.05 ± 0.04^b. The “selectivity in binding to the α2C- versus the α2A-AR” value [5] was 18 fold, the “selectivity in binding to the α2C- versus the α2B-AR” value [5] was 68 fold and the Ki ([6]; CHO cells) was 602 nM. The “α2B pKi ± SEM” value [6, 10] was 6.22 ± 0.03.

In the case of [^3H]rauwolscine [[^3H]rauwolsine], the “Bmax α2A” value ([4]; saturation binding, CHO cells) is reported as 8.20±0.71 pmoles/mg protein and the “Bmax α2C” value ([5]; saturation binding, CHO cells) is reported as 1.20±0.13 pmoles/mg protein.

For `COC(=O)[C@@H]1[C@H]2C[C@H]3c4[nH]c5ccccc5c4CCN3C[C@@H]2CC[C@@H]1O` [Compound 1, Yohimbine], the “reversal of medetomidine induced vasoconstriction” value ([1]; 30, 100, and 300 nM) was “reversed”, the “increase in vessel diameter” value [8] was 22.14±1.08% and the “binding affinity for the α2C-AR greater than on the α1-AR subtypes” value [5] was “at least 224 fold”.

With “yohimbine benzyl carbamate propyl amine [Compound 7]” the “mean percent inhibition (of the medetomidine response)” value ([3]; α2A-AR, test compound 0.1 μM, medetomidine 0.01 μM, forskolin 5 μM) was 54% and the “binding affinity for the α2C-AR greater than on the α1-AR subtypes” value [5] was no less than 562 fold.
